From patent publication US7517658B2, “Methods for preparing compositions using a SNORF33 receptor” (H. Lundbeck A/S, priority 1999, dated 2009)

Key:
cloned 5-HT receptors = conditions: read-out: Ki values at several cloned 5-HT receptors; cited from earlier work
hSNORF33 = target: T1, hSNORF33 (Homo sapiens, UniProt Q96RJ0); experiment: Electrophysiological response of Xenopus oocytes expressing hSNORF33 and CFTR; format: cell-based; design: expressed in transfected cells; host or cells: Xenopus laevis oocytes (mRNA injection, co-expressed CFTR); conditions: 100 μM tyramine; dependent on CFTR co-expression
T1 sequence (Q96RJ0 1-339): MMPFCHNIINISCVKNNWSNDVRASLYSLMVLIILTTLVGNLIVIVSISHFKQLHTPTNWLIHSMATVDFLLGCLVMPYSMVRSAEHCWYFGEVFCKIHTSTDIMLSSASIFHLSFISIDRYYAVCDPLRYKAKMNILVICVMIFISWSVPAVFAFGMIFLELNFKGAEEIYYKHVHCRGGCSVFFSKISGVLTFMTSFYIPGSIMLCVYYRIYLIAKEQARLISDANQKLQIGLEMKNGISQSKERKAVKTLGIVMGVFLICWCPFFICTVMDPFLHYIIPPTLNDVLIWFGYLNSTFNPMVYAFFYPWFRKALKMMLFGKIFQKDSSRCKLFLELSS
Protocol: Unless otherwise specified, oocytes were voltage clamped at a holding potential of −80 mV. During recordings, oocytes were bathed in continuously flowing (1-3 ml/min) medium containing 96 mM NaCl, 2 mM KCl, 1.8 mM CaCl2, 1 mM MgCl2, and 5 mM HEPES, pH 7.5 (ND96). […] Experiments were carried out at room temperature.

Compound | Ki (cloned 5-HT receptors) | Stimulation of hSNORF33 currents (hSNORF33)
NCCc1c[nH]c2ccccc12 [Tryptamine (T), Tryptamine] | 1 to 100 nM | 
NCCc1ccc(O)cc1 [Tyramine (TYR), Tyramine] |  | strongly stimulated
